Laboratory results taken from patent US20210177819A1, “METHODS AND COMPOSITIONS FOR MODULATING CALCIUM CHANNELS” (Northwestern University, priority 2005, published 2021).
“Also recorded” adds a separate entry of the source.

Test system: SNc dopaminergic neurons
Assay: Whole cell patch clamp recordings of pacemaking in dopaminergic neurons in brain slices
Type: cell-based, mouse

NC1=N[C@H](O)[C@H]2[C@H]3O[C@]4(O)O[C@@H]([C@@H](O)[C@@]2(N1)[C@@H]4O)[C@]3(O)CO [tetrodotoxin]
effect of blockade of TTX sensitive sodium channels on spikes and oscillations: eliminates spikes but not the underlying oscillations that drive pacemaking

COCCOC(=O)C1=C(C)NC(C)=C(C(=O)OC(C)C)C1c1cccc([N+](=O)[O-])c1 (stereo not drawn) [nimodipine, isopropyl 2-methoxyethyl 1,4-dihydro-2,6-dimethyl-4-(m-nitrophenyl)-3,5-pyridinedicarboxylate]
effect on autonomous pacemaking of dopaminergic neurons (tissue slice from an adult, FIG. 1): inhibits autonomous pacemaking of dopaminergic neurons

COC(=O)C1=C(C)NC(C)=C(C(=O)OC(C)C)C1c1cccc2nonc12 (stereo not drawn) [isradipine, 3,5-pyridinedicarboxylic acid, 4-(4-benzofurazanyl)-1,4-dihydro-2,6-dimethyl-, methyl 1-methylethyl ester]
effect of sustained blockade on pacemaking (altered pacemaking mechanism) (adult SNc dopaminergic neuron, before, during and after application, FIG. 4): altered pacemaking mechanism can be elicited; also recorded: restores pacemaking and dopaminergic neuron cell function through an altered pacemaking mechanism
